# According to patent US8772323B2, “Benzoxazole- and tetrahydrobenzoxazole-substituted pyridazinones as GPR119 agonists” (Boehringer Ingelheim International GmbH, priority 2010, dated 2014):
# Target: human GPR119 (Homo sapiens (Human), UniProt Q8TDV5)
# Experiment: AlphaScreen cAMP assay in Min-6/hGPR119 cells (GPR119 activation, intracellular cAMP)
# Assay type: cell-based
# Conditions: MIN6 cells stably transfected with human GPR119; 45 minutes' incubation at RT; AlphaScreen cAMP Assay Kit
# Procedure, shortened: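 MIN6 cells stably expressing human GPR119 plated 10000 cells/well and held 24 h at 37° C. Compounds applied in stimulating buffer, pH 7.4, with 0.5 mM IBMX, 0.1% BSA, 1% DMSO final, for 45 min at RT. Intracellular cAMP read by AlphaScreen.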
# Chain of human GPR119 (Q8TDV5 whole entry): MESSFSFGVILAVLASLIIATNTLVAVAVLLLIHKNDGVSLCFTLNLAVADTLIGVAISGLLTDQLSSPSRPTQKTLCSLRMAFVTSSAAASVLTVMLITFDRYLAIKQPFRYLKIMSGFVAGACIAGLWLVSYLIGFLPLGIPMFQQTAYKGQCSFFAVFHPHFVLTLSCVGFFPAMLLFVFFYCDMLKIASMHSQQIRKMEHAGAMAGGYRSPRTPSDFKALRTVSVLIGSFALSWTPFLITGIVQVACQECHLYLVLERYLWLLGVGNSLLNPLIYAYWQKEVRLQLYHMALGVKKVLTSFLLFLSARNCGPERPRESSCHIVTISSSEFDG
row,Structure (SMILES),EC50 [nM]
1,"CCC[C@H]1C(=O)NN=C(c2ccc3nc(-c4ccco4)oc3c2)[C@@H]1C [Example 188, trans-6-(2-uran-2-yl-benzoxazol-6-yl)-5-methyl-4-propyl-4,5-dihydro-2H-pyridazin-3-one]",83
2,"Cc1ccc(-c2nc3ccc(C4=NNC(=O)C5CC45)cc3o2)cc1 (stereo not shown) [Example 13, 5-(2-p-tolyl-benzoxazol-6-yl)-3,4-diaza-bicyclo[4.1.0]hept-4-en-2-one]",153
3,"COc1ccc(-c2nc3ccc(C4=NNC(=O)CC4C)cc3o2)cc1 (stereo not shown) [Example 83, 6-[2-(4-methoxy-phenyl)-benzoxazol-6-yl]-5-methyl-4,5-dihydro-2H-pyridazin-3-one]",94
4,"CC1CC(=O)NN=C1c1ccc2nc(-c3cccc(C#N)c3)oc2c1 (stereo not shown) [Example 123, 3-[6-(4-methyl-6-oxo-1,4,5,6-tetrahydropyridazin-3-yl)-1,3-benzoxazol-2-yl]benzonitrile]",902
5,"CCC[C@H]1C(=O)NN=C(c2ccc3nc(-c4ccc(C)s4)oc3c2)[C@@H]1C (relative stereo) [Example 184, trans-5-methyl-6-[2-(5-methyl-thiophen-2-yl)-benzoxazol-6-yl]-4-propyl-4,5-dihydro-2H-pyridazin-3-one]",53
6,"CCCC1CCN(CCOc2ccc(-c3nc4ccc(C5=NNC(=O)CC5CC)cc4o3)cc2)CC1 (stereo not shown) [Example 244, 5-ethyl-6-(2-{4-[2-(4-propyl-piperidin-1-yl)-ethoxy]-phenyl}-benzoxazol-6-yl)-4,5-dihydro-2H-pyridazin-3-one]",181
7,"C[C@H]1CC(=O)NN=C1c1ccc2nc(-c3ccccc3)oc2c1 [Example 1, (S)-5-methyl-6-(2-phenyl-benzoxazol-6-yl)-4,5-dihydro-2H-pyridazin-3-one]",660
8,"CCC1CC(=O)NN=C1c1ccc2nc(-c3ccc(OCCN4C(C)(C)CCCC4(C)C)cc3)oc2c1 (stereo not shown) [Example 58, 5-ethyl-6-(2-{4-[2-(2,2,6,6-tetramethyl-piperidin-1-yl)-ethoxy]-phenyl}-benzoxazol-6-yl)-4,5-dihydro-2H-pyridazin-3-one]",76
9,"CC[C@H]1C(c2ccc3nc(-c4ccc(OC(C)C)cc4)oc3c2)=NNC(=O)[C@@H]1C (relative stereo) [Example 178, trans-5-ethyl-6-[2-(4-isopropoxy-phenyl)-benzoxazol-6-yl]-4-methyl-4,5-dihydro-2H-pyridazin-3-one]",108
10,"CCCC[C@@H]1C(=O)NN=C(c2ccc3nc(-c4ccccc4)oc3c2)[C@H]1C (relative stereo) [Example 197, trans-4-butyl-5-methyl-6-(2-phenyl-benzoxazol-6-yl)-4,5-dihydro-2H-pyridazin-3-one]",1110
11,"CCC1CC(=O)NN=C1c1ccc2nc(-c3ccc(OCCN4C[C@H]5CC[C@@H]4C5)cc3)oc2c1 (stereo partly shown) [Example 164, 6-(2-{4-[2-(2-aza-bicyclo[2.2.1]-hept-2-yl)-ethoxy]-phenyl}-benzoxazol-6-yl)-5-ethyl-4,5-dihydro-2H-pyridazin-3-one]",552

# Further lines, results first:
row,EC50 [nM],Structure (SMILES)
1,896,"C=CC[C@H]1C(=O)NN=C(c2ccc3nc(-c4ccccc4)oc3c2)[C@H]1C (relative stereo) [Example 198, cis-4-allyl-5-methyl-6-(2-phenyl-benzoxazol-6-yl)-4,5-dihydro-2H-pyridazin-3-one]"
2,840,CCC1CC(=O)NN=C1c1ccc2nc(-c3cccc(OCCN(CC)C(C)C)c3)oc2c1 (stereo not shown) [Example 218]
3,424,"CCC1CC(=O)NN=C1c1ccc2nc(-c3cccc(OCCN(C(C)C)C(C)C)c3)oc2c1 (stereo not shown) [Example 154, 6-{2-[3-(2-diisopropylamino-ethoxy)-phenyl]-benzoxazol-6-yl}-5-ethyl-4,5-dihydro-2H-pyridazin-3-one]"
4,61,"CCC1OC(=O)NN=C1c1ccc2nc(-c3ccccc3)oc2c1 (stereo not shown) [Example 78, 6-ethyl-5-(2-phenyl-benzoxazol-6-yl)-3,6-dihydro-[1,3,4]oxadiazin-2-one]"
5,31,"CC1OC(=O)NN=C1c1ccc2nc(-c3ccccc3)oc2c1 (stereo not shown) [Example 81, 6-methyl-5-(2-phenyl-1,3-benzoxazol-6-yl)-3,6-dihydro-2H-1,3,4-oxadiazin-2-one]"
